Reference: ChEMBL document CHEMBL1158943, “Chemistry of Sponges, XI. 22-Deoxyvariabilin, a New Sesterterpene from the Sponge Thorecta sp” (J Nat Prod, 1991)
Activity calls are given as the source filed them.

Columns and labels:
Type in all cases: functional, organism-based
Bacillus subtilis = assay: Antimicrobial activity against Bacillus subtilis at 50 ug/disk by standard disk method
Staphylococcus aureus = assay: Antimicrobial activity against Staphylococcus aureus at 100 ug/disk by standard disk method
Candida albicans = assay: Antimicrobial activity against Candida albicans at 100 ug/disk by standard disk method

Measured: Activity

CC1=C/C(=C/[C@@H](C)CCC/C(C)=C/CC/C(C)=C/CCc2ccoc2)OC1=O
active: Bacillus subtilis | Staphylococcus aureus | Candida albicans
